Results reported in ChEMBL document CHEMBL2073792, “Hepatic uptake of the magnetic resonance imaging contrast agent gadoxetate by the organic anion transporting polypeptide Oatp1” (J Pharmacol Exp Ther, 1999).
Blank lines part the entries; values can stand above or below the molecule they belong to.

Columns and labels:
Assay type in all cases: functional, cell-based
Settings in all cases: oocyte
[1] = molecular target: T1, Solute carrier organic anion transporter family member 1A1 (Rattus norvegicus, UniProt P46720); assay: TP_TRANSPORTER: inhibition of Gadoxetate uptake (Gadoxetate: 100 uM, Rifampicin: 100 uM) in Xenopus laevis oocytes
T1 sequence (P46720 whole entry): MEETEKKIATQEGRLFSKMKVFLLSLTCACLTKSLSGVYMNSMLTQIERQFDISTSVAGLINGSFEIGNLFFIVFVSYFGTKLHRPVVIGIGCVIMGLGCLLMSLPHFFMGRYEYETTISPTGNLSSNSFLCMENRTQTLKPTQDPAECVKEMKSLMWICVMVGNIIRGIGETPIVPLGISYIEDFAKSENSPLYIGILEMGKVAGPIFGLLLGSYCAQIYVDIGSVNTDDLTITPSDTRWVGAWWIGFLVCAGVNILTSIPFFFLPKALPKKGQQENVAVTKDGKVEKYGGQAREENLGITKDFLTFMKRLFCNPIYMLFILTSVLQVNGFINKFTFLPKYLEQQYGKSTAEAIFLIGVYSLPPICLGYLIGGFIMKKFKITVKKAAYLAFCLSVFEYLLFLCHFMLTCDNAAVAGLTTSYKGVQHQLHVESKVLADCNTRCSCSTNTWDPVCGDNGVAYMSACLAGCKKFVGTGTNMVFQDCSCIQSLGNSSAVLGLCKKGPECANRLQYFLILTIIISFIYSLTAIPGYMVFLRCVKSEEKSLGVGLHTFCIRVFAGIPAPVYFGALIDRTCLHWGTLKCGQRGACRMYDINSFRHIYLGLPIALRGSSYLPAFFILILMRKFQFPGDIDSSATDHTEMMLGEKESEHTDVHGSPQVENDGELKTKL

[2] = molecular target: T1, Solute carrier organic anion transporter family member 1A1; assay: TP_TRANSPORTER: inhibition of Gadoxetate uptake (Gadoxetate: 100 uM, Rifamycin SV: 100 uM) in Xenopus laevis oocytes
[3] = molecular target: T1, Solute carrier organic anion transporter family member 1A1; assay: TP_TRANSPORTER: inhibition of Gadoxetate uptake (Gadoxetate: 100 uM, BSP: 10 uM) in Xenopus laevis oocytes
[4] = molecular target: T1, Solute carrier organic anion transporter family member 1A1; assay: TP_TRANSPORTER: uptake in Xenopus laevis oocytes

Molecule: CO[C@H]1/C=C/O[C@@]2(C)Oc3c(C)c(O)c4c(O)c(c(/C=N/N5CCN(C)CC5)c(O)c4c3C2=O)NC(=O)/C(C)=C\C=C\[C@H](C)[C@H](O)[C@@H](C)[C@@H](O)[C@@H](C)[C@H](OC(C)=O)[C@@H]1C [RIFAMPIN]
Activity [1]: inhibitor [(at a rough estimate) 50 % of control]

Molecule: CO[C@H]1/C=C/O[C@@]2(C)Oc3c(C)c(O)c4c(O)c(cc(O)c4c3C2=O)NC(=O)/C(C)=C\C=C\[C@H](C)[C@H](O)[C@@H](C)[C@@H](O)[C@@H](C)[C@H](OC(C)=O)[C@@H]1C [RIFAMYCIN]
Activity [2]: inhibitor [(at a rough estimate) <5 % of control]

Molecule: O=C1OC(c2ccc(O)c(S(=O)(=O)[O-])c2)(c2ccc(O)c(S(=O)(=O)[O-])c2)c2c(Br)c(Br)c(Br)c(Br)c21.[Na+].[Na+] [SULFOBROMOPHTHALEIN SODIUM]
Activity [3]: inhibitor [(at a rough estimate) 55 % of control]

Km [4]: 3.3 mM
Molecule: GADOXETATE
